Reference: ChEMBL document CHEMBL1649495, “Sitafloxacin activity against Helicobacter pylori isolates, including those with gyrA mutations” (2009)
In brackets after ≈: the same amount, converted by molar mass.

Key:
Assay type in all cases: functional
Helicobacter pylori [1] = assay: Antibacterial activity against Helicobacter pylori clinical isolates harboring gyrA gene by agar dilution method
Helicobacter pylori [2] = assay: Antibacterial activity against Helicobacter pylori clinical isolates harboring gyrA Asp91 mutant gene by agar dilution method
Helicobacter pylori [3] = assay: Antibacterial activity against Helicobacter pylori clinical isolates harboring gyrA Asn87 mutant gene by agar dilution method
Helicobacter pylori [4] = assay: Antibacterial activity against Helicobacter pylori clinical isolates harboring mutation in gyrA gene by agar dilution method

| Compound | MIC50 (Helicobacter pylori [1]) [µg/mL] | MIC90 (Helicobacter pylori [1]) [µg/mL] | MIC50 (Helicobacter pylori [2]) [µg/mL] | MIC90 (Helicobacter pylori [2]) [µg/mL] | MIC50 (Helicobacter pylori [3]) [µg/mL] | MIC90 (Helicobacter pylori [3]) [µg/mL] | MIC (Helicobacter pylori [4]) [µg/mL] |
| --- | --- | --- | --- | --- | --- | --- | --- |
| C[C@H]1NCc2cc(-c3ccc4c(=O)c(C(=O)O)cn(C5CC5)c4c3OC(F)F)ccc21 [GARENOXACIN] | 0.03 (≈ 0.0704 µM) | 0.06 (≈ 0.141 µM) | 0.5 (≈ 1.17 µM) | 1 (≈ 2.35 µM) | 0.5 (≈ 1.17 µM) | 1 (≈ 2.35 µM) | ≤ 0.015 |
| C[C@H]1COc2c(N3CCN(C)CC3)c(F)cc3c(=O)c(C(=O)O)cn1c23.C[C@H]1COc2c(N3CCN(C)CC3)c(F)cc3c(=O)c(C(=O)O)cn1c23.O [LEVOFLOXACIN] | 0.25 | 0.25 | 4 | 8 | 8 | 16 | 0.12 |
| N[C@@H]1CN(c2c(F)cc3c(=O)c(C(=O)O)cn([C@@H]4C[C@@H]4F)c3c2Cl)CC12CC2 [SITAFLOXACIN ANHYDROUS] | 0.03 (≈ 0.0732 µM) | 0.03 (≈ 0.0732 µM) | 0.12 (≈ 0.293 µM) | 0.25 (≈ 0.61 µM) | 0.25 (≈ 0.61 µM) | 0.5 (≈ 1.22 µM) | ≤ 0.015 |
